In PubChem BioAssay AID686998 (Broad Institute, 2013):
pIC50: −log10 of the molar value. Values joined by “and” are separate entries in the source; they are usually repeats but may differ in a detail not shown here. Equal entries are not always repeated. Records with an inconclusive call do not appear. Active and inactive are the calls of the source.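 How the source made its calls: active means falling signal with fitted half-maximal potency no higher than twice the top valid tested dose; inconclusive means poor fit quality, or flat fit spanning -70% to -30%; inactive means potency over limit, rising signal, or flat fit inside 30%.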

Test system: Cryptococcus neoformans growth, Alamar Blue, 24 h
Test: Cryptococcus neoformans growth inhibition, dose response, Alamar Blue, cherry-picks (AID 686998)

For COC(=O)C1=C(C)N(Cc2ccccc2)C(=S)NC1c1cccc(Br)c1 (centres undefined), the pIC50 was 5.18 and 5.08.

CCC(=O)Nc1ccc2c(c1)C(=O)N(C)C[C@H](OC)[C@@H](C)CN[C@H](C)CO2 was tested, and the IC50 was > 70 µM (inactive).

Work on COc1ccc(N2CCN(C(=O)CSc3ncnc4c3cnn4-c3ccccc3C)CC2)cc1 yielded a pIC50 of 4.27.

With C[C@H](CO)N1C[C@H](C)[C@H](CN(C)Cc2ccc(Cl)c(Cl)c2)Oc2c(NC(=O)Nc3ccccc3)cccc2C1=O the pIC50 was 4.97.

CNC(=O)CN(c1ccc(OC)cc1)S(=O)(=O)c1ccc(F)cc1 was tested, and the IC50 was > 70 µM (inactive).

In the case of CC[C@H](C)[C@@H]1NC(=O)CNC(=O)c2csc(n2)[C@H](C(C)(C)O)OC(=O)C(C)(C)[C@H](CCCC(C)(Cl)Cl)OC(=O)c2csc1n2, the pIC50 was 5.67.

With Cc1ccc(S(=O)(=O)N2CC[C@@H]3[C@H]2c2cc(-c4ccccc4F)ccc2N[C@@H]3CO)cc1 the pIC50 was 5.21.

With CN1C[C@@H]2C(c3ccc(C(F)(F)F)cc3)C3(c4ccccc4)CC2(C3)[C@H]1c1ccccc1 (some centres undefined) the pIC50 was 4.95.

With CCCCN1C(=S)NC[C@@H]1Cc1ccccc1 the pIC50 was 4.68.

Compound CO[C@@H]1CN(C)C(=O)c2cc(NC(=O)C3CCOCC3)ccc2OC[C@H](C)NC[C@@H]1C has a pIC50 of 4.17.

With COC(=O)C1=C(C)N(Cc2ccc(Cl)cc2)C(=S)NC1c1ccc(F)cc1 (centres undefined) the pIC50 was 4.83 and 4.68.

CC(=O)c1cccc(NC(=S)NC2CCCCCCC2)c1 gave a pIC50 of 4.97.

With Cc1ccc(C(=O)NC(=S)Nc2ccccc2N2CCCC2)cc1[N+](=O)[O-] the pIC50 was 6.33.

C[C@H](NC(=O)C[C@@H]1C=C[C@H](NC(=O)CN2CCOCC2)[C@H](CO)O1)c1ccccc1 was tested, and the pIC50 was 4.35.

COC(=O)C1=C(C)N(Cc2ccc(Br)cc2)C(=S)NC1c1ccccc1 (centres undefined) was tested, and the pIC50 was 4.88.

In the case of C[C@@H]1CN([C@H](C)CO)S(=O)(=O)c2ccc(-c3ccccc3)cc2O[C@H]1CN(C)C(=O)C1CCCCC1, the pIC50 was 4.18.

Work on CCOC(=O)c1c(-c2ccc(-c3ccccc3)cc2)csc1NC(=O)CNCCN(C)C yielded a pIC50 of 4.82.

In the case of Cc1ccc(NC(=S)NCc2ccc(Cl)cc2)c(OC(F)F)c1, the pIC50 was 4.99.

With CC(C)NC(=O)N(C)C[C@@H]1Oc2c(NC(=O)C3CCCCC3)cccc2C(=O)N([C@@H](C)CO)C[C@@H]1C the pIC50 was 5.09.

Cc1ccccc1-n1ncc2c(SCC(=O)NCc3cccs3)ncnc21 was tested, and the pIC50 was 4.63.

Fc1ccccc1CNC(=S)NCc1ccc(Cl)cc1 showed a pIC50 of 4.89.

Cc1cc(C(=O)Nc2cccc3c2O[C@@H](CN(C)S(=O)(=O)c2ccccc2)[C@@H](C)CN([C@@H](C)CO)C3=O)n(C)n1 gave a pIC50 of 4.21.

For CC(C)c1ccc(OCC(=O)NC(C)c2ccccc2)cc1 (centres undefined), the pIC50 was 4.31.

Compound CCCn1c(=S)[nH]c2cc(Cl)ccc21 has a pIC50 of 4.64.

Cc1cc(C)c(NC(=O)CN2CCCCCC2)c(C)c1 showed a pIC50 of 6.07.

With Cc1noc(C)c1NC(=O)N(C)C[C@H]1Oc2ccc(NC(=O)C3CC3)cc2CC(=O)N([C@@H](C)CO)C[C@H]1C the IC50 was > 70 µM (inactive).

COc1cccc(S(=O)(=O)Nc2ccc3c(c2)[C@H]2C[C@@H](CC(=O)NC4CCCCC4)O[C@@H](CO)[C@H]2O3)c1 gave a pIC50 of 5.16.

For CCOc1ccc(CNC(=S)NCc2ccc(OCC)cc2)cc1, the pIC50 was 5.05.

For Cc1ccc(S(=O)(=O)N2CC[C@@H]3[C@H](CO)Nc4ccc(-c5ccccc5F)cc4[C@@H]32)cc1, the pIC50 was 6.00.

In the case of C[C@H](CO)N1C[C@H](C)[C@H](CN(C)C(=O)NC2CCCCC2)OCCCC[C@H](C)Oc2ccc(NS(=O)(=O)c3cn(C)cn3)cc2C1=O, the pIC50 was 4.32.

Cc1cccc(NC(=S)NN(Cc2ccccc2)c2ccccc2)c1C gave a pIC50 of 4.92.

COC(=O)C1=C(C)N(Cc2ccc(F)cc2)C(=S)NC1c1cccc(Br)c1 (centres undefined) gave a pIC50 of 5.17.

Work on COC(=O)C1=C(C)N(Cc2ccc(Cl)cc2)C(=S)NC1c1ccc(Br)cc1 (centres undefined) yielded a pIC50 of 4.83.

With COc1ccc(CN(C)C[C@@H]2OCCCC[C@@H](C)Oc3ccc(NC(=O)c4ccccc4)cc3C(=O)N([C@H](C)CO)C[C@@H]2C)cc1 the IC50 was > 70 µM (inactive).

CCC(C)(C(=O)Nc1ccccc1C)N(C(=O)CNC(C)=O)c1ccccc1C (centres undefined) showed a pIC50 of over 6.59.

In the case of O=C(COc1ccccc1)NCc1ccccc1, the pIC50 was 5.55.

C[C@H](CO)N1C[C@H](C)[C@H](CN(C)CC2CCCCC2)Oc2c(NS(C)(=O)=O)cccc2C1=O showed a pIC50 of 4.25.

COC(=O)C1=C(C)N(CC(C)C)C(=S)NC1c1ccc(F)cc1 (centres undefined) showed a pIC50 of 4.69.

Compound CC(C)CC#Cc1cnc2c(c1)C(=O)N([C@@H](C)CO)C[C@@H](C)[C@@H](CN(C)C(=O)c1cccc(F)c1)O2 has a pIC50 of 4.34.

With Cc1cc(C)c2nc(N3CCN(C(=O)c4cccs4)CC3)sc2c1 the pIC50 was 4.66.

With CCCCNC(=S)N/N=C/c1ccc(C#N)cc1 the pIC50 was 5.56.

With Cc1ccc(NC(=S)Nc2ccc(Cl)c(Cl)c2)c(OC(F)F)c1 the pIC50 was 4.69.

Work on COc1cccc(CNC(=O)COc2ccc(C(=O)c3ccccc3)cc2)c1 yielded a pIC50 of 4.68.

For C[C@@H]1CN([C@H](C)CO)C(=O)c2cccc(NC(=O)c3ccncc3)c2O[C@H]1CN(C)C(=O)Nc1ccc(C(F)(F)F)cc1, the pIC50 was 4.17.

Work on COC(=O)C1=C(C)N(Cc2ccc(F)cc2)C(=S)NC1c1cccc(Cl)c1 (centres undefined) yielded a pIC50 of 4.98.

COC(=O)C1=C(C)N(Cc2ccc(Br)cc2)C(=S)NC1c1cccc(Br)c1 (centres undefined) gave a pIC50 of 5.19.

COc1ccc(CN(C)C[C@@H]2Oc3ccc(NS(C)(=O)=O)cc3CC(=O)N([C@H](C)CO)C[C@H]2C)cc1 was tested, and the pIC50 was 4.31.

O=C(CSc1ncnc2c1cnn2-c1cccc(Cl)c1)NCC1CCCO1 (centres undefined) was tested, and the pIC50 was 4.41.

COC(=O)C1=C(C)N(Cc2ccc(F)cc2)C(=S)NC1c1ccc(F)cc1 (centres undefined) gave a pIC50 of 4.64.

Compound S=C(NCCc1cccc(Cl)c1)NC1CCCCC1 has a pIC50 of 5.17.

COc1cc2c(C(=O)N(C)c3cc(Cl)ccc3OC)cn(C)c(=O)c2cc1OC showed a pIC50 of 6.42.

C[C@@H]1CN([C@@H](C)CO)S(=O)(=O)c2ccc(C3=CCCC3)cc2O[C@@H]1CN(C)Cc1ccccc1F showed a pIC50 of 4.50.

In the case of CO[C@H]1CN(C)C(=O)c2ccc(NC(=O)NC(C)C)cc2OC[C@@H](C)NC[C@H]1C, the pIC50 was 5.97.

In the case of O=C(c1cccc(F)c1)N1C[C@H]2[C@@H](c3ccccc31)[C@@H](CO)N2Cc1cocn1, the IC50 was > 70 µM (inactive).

In the case of C[C@@H]1CCCCO[C@@H](CN(C)C(=O)NC2CCCCC2)[C@H](C)CN([C@@H](C)CO)C(=O)c2cc(NS(=O)(=O)c3cn(C)cn3)ccc2O1, the pIC50 was 4.35.

Cc1ccc(S(=O)(=O)N(C)C[C@H]2Oc3c(cccc3N(C)C)C(=O)N([C@@H](C)CO)C[C@H]2C)cc1 was tested, and the IC50 was > 70 µM (inactive).

Compound O=C(CN(c1ccccc1)S(=O)(=O)c1ccccc1)Nc1ccc(F)cc1 has a pIC50 of 4.39.

O=C(Nc1ccc(N2CCOCC2)cc1N1CCOCC1)c1cccc([N+](=O)[O-])c1 was tested, and the pIC50 was 4.17.

Fc1cccc(CCN2C(=S)NC[C@@H]2Cc2ccccc2)c1 gave a pIC50 of 5.15.

For CNC[C@@H]1Oc2c(NS(=O)(=O)c3ccc(Cl)cc3)cccc2C(=O)N([C@H](C)CO)C[C@H]1C, the IC50 was > 70 µM (inactive).

With C[C@H](CO)N1C[C@H](C)[C@@H](CN(C)C(=O)Nc2ccc3c(c2)OCO3)Oc2ccc(NS(=O)(=O)c3cccs3)cc2C1=O the pIC50 was 4.19.

For C[C@@H]1CN([C@H](C)CO)C(=O)Cc2cc(NC(=O)NC3CCCCC3)ccc2O[C@@H]1CN(C)Cc1ccccc1, the IC50 was > 70 µM (inactive).

Work on O=C(NC(=S)Nc1ccccc1N1CCOCC1)c1ccc(Br)cc1 yielded a pIC50 of 5.21.

In the case of CC(NC(=O)COc1ccccc1Cl)c1ccccc1 (centres undefined), the pIC50 was 6.06.

In the case of Cc1ccc2nc(C)c3c(c2c1)OC(C(C)(Cl)Br)C3 (centres undefined), the pIC50 was 4.72.

With CCC(=O)N(C)C[C@@H]1Oc2cc(C#CC(C)(C)O)ccc2S(=O)(=O)N([C@@H](C)CO)C[C@H]1C the pIC50 was 4.54.

Compound CCOC(=O)CNC(=O)CSc1ncnc2c1cnn2-c1ccc(Cl)cc1 has a pIC50 of 4.17.

COc1cccc(NC(=S)NC(=O)Cc2ccc(Cl)cc2)c1 showed a pIC50 of 5.28.

C[C@H]1CN([C@@H](C)CO)C(=O)c2cc(C#CC3(O)CCCC3)cnc2O[C@@H]1CN(C)Cc1cccnc1 was tested, and the IC50 was > 70 µM (inactive).

In the case of O=C1CCC(C(=O)Nc2ccc([N+](=O)[O-])cc2)N1 (centres undefined), the pIC50 was 4.99.

Work on COC(=O)C1=C(C)N(Cc2ccc(F)cc2)C(=S)NC1c1ccc(Cl)cc1 (centres undefined) yielded a pIC50 of 4.94.

Work on O=C(NC(=S)NCC1COc2ccccc2O1)c1ccc(Cl)cc1 (centres undefined) yielded a pIC50 of 5.20.

C[C@@H]1CN([C@H](C)CO)C(=O)Cc2cc(NC(=O)CCCCCC(=O)Nc3ccccc3N)ccc2O[C@H]1CN(C)C(=O)Nc1ccccc1 gave a pIC50 of 5.33.

CCc1ccc(C(C)NC(=S)NCc2ccc(F)cc2)cc1 (centres undefined) gave a pIC50 of 5.14.

CCOc1ccc(C(=O)NC(=S)Nc2ccccc2N2CCCCC2)cc1[N+](=O)[O-] showed a pIC50 of 5.51.

With COc1ccccc1/C=N/NC(=S)NCc1ccco1 the pIC50 was 4.89.

Work on CC(=O)OC1(C)CC(C)C(=O)C(C(O)CC2CC(=O)NC(=O)C2)C1 (centres undefined) yielded a pIC50 of over 6.59.

Compound NC(=S)N/N=C/c1ccc(-c2cc(Cl)ccc2Cl)o1 has a pIC50 of 5.35.

Compound Cc1ccccc1-n1ncc2c(SCC(=O)N3c4ccccc4CC3C)ncnc21 (centres undefined) has a pIC50 of 6.55.

COc1ccc(CN(C)C[C@H]2Oc3ccc(NS(C)(=O)=O)cc3CC(=O)N([C@@H](C)CO)C[C@H]2C)cc1 was tested, and the pIC50 was 4.40.

With COC(=O)C1=C(C)N(CC(C)C)C(=S)NC1c1ccc(-c2ccccc2)cc1 (centres undefined) the pIC50 was 5.42 and 5.40.

In the case of Cc1noc(C)c1NC(=O)N(C)C[C@@H]1Oc2ccc(NC(=O)NC(C)C)cc2CC(=O)N([C@@H](C)CO)C[C@@H]1C, the IC50 was > 70 µM (inactive).

Compound CC(C)CC#Cc1ccc2c(c1)O[C@H](CN(C)C(=O)C1CCC1)[C@@H](C)CN([C@@H](C)CO)S2(=O)=O has a pIC50 of 4.36.

For CCNC(=O)C[C@H]1CC[C@@H](NC(=O)NC2CCCCC2)[C@H](CO)O1, the pIC50 was 4.28.

C[C@H](NC(=O)C[C@H]1CC[C@@H](NC(=O)Cc2ccccn2)[C@@H](CO)O1)c1ccccc1 showed a pIC50 of 4.33.

In the case of COC(=O)C1=C(C)N(Cc2ccc(Br)cc2)C(=S)NC1c1ccc(OC)cc1 (centres undefined), the pIC50 was 4.58 and 4.48.

COc1cc(NC(=O)CN2CCN(S(=O)(=O)c3ccc(C(C)C)cc3)CC2)cc(OC)c1 showed a pIC50 of 4.23.

For COc1ccc(CNC(=S)NCc2ccc(OC(C)C)cc2)cc1, the pIC50 was 4.52.

In the case of CNC[C@@H]1OCCCC[C@@H](C)Oc2ccc(NC(=O)NC(C)C)cc2C(=O)N([C@@H](C)CO)C[C@H]1C, the IC50 was > 70 µM (inactive).

COC(=O)C1=C(C)N(Cc2ccc(F)cc2)C(=S)NC1c1cccc(F)c1 (centres undefined) was tested, and the pIC50 was 4.66.

Work on O=C(CN1CCOCC1)N[C@@H]1CC[C@@H](CCNC(=O)C2CCC2)O[C@@H]1CO yielded a pIC50 of 4.36.

CCC(=O)N1[C@H](CN(C)C(C)=O)[C@@H](c2ccc(C3=CCCCC3)cc2)[C@@H]1CO gave a pIC50 of 4.39.

Work on Cc1ccc(C(=O)Nc2ccc3ncccc3c2)cc1 yielded a pIC50 of 4.62.

For Cc1c(C(=O)NC(=S)Nc2ccc(N3CCOCC3)cc2)cccc1[N+](=O)[O-], the pIC50 was 4.46.
